US20060286173A1, “Drug delivery system for sub-tenon s capsule adminstration of fine grains” (priority 2003, published 2006)

Test: In vitro drug release test
Type: physicochemical
Conditions: 0.1 M phosphate buffer pH 7.4, 37° C.
Method: This mixture was placed in a glass vessel, and thereto was added 98.5 mL of 0.1 M phosphate buffer (pH 7.4). The entire mixture was shaken in a water bath at 37° C., and the in vitro drug release test was started. […] As a control, the powder of each drug in the same amount was charged into the chamber described above, and the release test was conducted in the same manner.
2) On day 1, 2, 6, 14, 29 after starting the test, the buffer was sampled in its entirety, which was analyzed using high performance liquid chromatography. Also, after the sampling, 98.5 mL of 0.1 M phosphate buffer (pH 7.4) was freshly added, and the release test was continued.

CC1(C)O[C@@H]2C[C@H]3[C@@H]4C[C@H](F)C5=CC(=O)C=C[C@]5(C)[C@@]4(F)[C@@H](O)C[C@]3(C)[C@]2(C(=O)CO)O1 [Fluocinolone acetonide powder, fluocinolone acetonide]
In vitro drug release rate (%) (Day 1): 57.6%
In vitro drug release rate (%) (Day 2): 73.4%
